Measurements taken from patent US8940798B2, “Compounds useful for treating and/or preventing disease-associated bone loss” (Centre National de al Recherche Scientifique (CNRS), priority 2011, dated 2015).

Test system: osteoclasts (OCs)
Assay: OC survival assay (number of OCs after 24-hour incubation)
Type: cell-based
Conditions: number of OCs as % of DMSO control
From the text: FIGS. 5A-5H: Inhibition of bone resorption by an inhibitor of Rac1 activation by Dock5. (FIG. 5A) Principle of the yeast exchange assay used to identify inhibitors of Dock5 exchange activity. Wild type Rac1 is fused to LexA DNA binding domain (LexA) and its effector Kinectin (Kin) to GAL4 activation domain (GAD). Expression of Dock5-DHR2 activates Rac1, which binds to kinectin, leading to the expression of his3 and then yeast […] for histidine. Inhibitors of Dock5-DHR2 revert Rac1 activation. (FIG. 5B) Growth curves of yeasts expressing Rac1 and Kinectin with (open triangles) and without (dots) Dock5-DHR2, in medium complemented (plain lines) or not (dotted lines) with histidine. […] (FIG. 5F) Number of OCs (OC) after a 24-hour incubation with the indicated concentrations of C21, expressed as a % of DMSO control (0 μM C21). […]
Preparations were mounted in Mowiol 40-88 (Sigma) and imaged with Zeiss Axioimager Z2 microscope with Coolsnap HQ2 camera for fluorescence and Coolsnap color Cf camera using Zeiss 40× PLAN-NEOFLUAR 1.3 oil DIC or Zeiss 20× PLAN-APOCHROMAT 0.8 or Zeiss 10× EC PLAN-NEOFLUAR 0.3. […] OC circularity was measured using ImageJ. OCs were counted manually in 96-well plates stained to reveal DNA and TRAP activity, except in FIG. 5F where they were counted automatically using a Cellomics Arrayscan VTI (Thermo Scientific). […]

SMILES: O=S(=O)(Nc1cc(Cl)cc(Cl)c1)c1ccccc1 [C21, N-(3,5-dichlorophenyl)benzenesulfonamide]
- Concentrations provoking OC death: above 25 μM
